Source: patent US20200331904A1, “3-AMINO-[1,2,4]-TRIAZOLE DERIVATIVES AND THEIR USE FOR CONTROLLING UNDESIRED PLANT GROWTH” (Bayer CropScience Aktiengesellschaft, priority 2017, published 2020)

Columns and labels:
Format in all cases: in vivo
Conditions in all cases: Table B1, application rate 320 g/ha, scored visually after about 3 weeks vs untreated controls
Polygonum convolvulus = assay: Pre-emergence herbicidal efficacy, POLCO
Source text: (§1) C.1 Pre-Emergence Herbicidal Action and Crop Plant Compatibility
(§2) Seeds of monocotyledonous and dicotyledonous weed plants and crop plants are placed in plastic or organic planting pots and covered with soil. The compounds of the invention, formulated in the form of wettable powders (WP) or as emulsion concentrates (EC), are then applied onto the surface of the covering soil as aqueous suspension or emulsion with addition of 0.5% additive at a water application rate of […] (converted). After the treatment, the pots are placed in a greenhouse and kept under good growth conditions for the trial plants. After about 3 weeks, the effect of the preparations is scored visually in comparison with untreated controls as percentages. For example, 100% activity=the plants have died, 0% activity=like control plants.
(§3) ABUTH: Abutilon theophrasti ALOMY: Alopecurus myosuroides AMARE: Amaranthus retroflexus AVEFA: Avena fatua CYPES: Cyperus esculentus ECHCG: Echinochloa crus-galli LOLMU: Lolium multiflorum MATIN: Matricaria inodora PHBPU: Ipomoea purpurea POLCO: Polygonum convolvulus SETVI: Setaria viridis STEME: Stellaria media VERPE: Veronica persica VTOTR: Viola tricolor

Viola tricolor = assay: Pre-emergence herbicidal efficacy, VIOTR
Outline: (§4)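 Visual percent activity relative to untreated plants (0% = like control, 100% = dead), scored about 3 weeks after treatment under greenhouse conditions.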

Lolium rigidum = assay: Pre-emergence herbicidal efficacy, LOLRI
Source text: C.1 Pre-Emergence Herbicidal Action and Crop Plant Compatibility Seeds of monocotyledonous and dicotyledonous weed plants and crop plants are placed in plastic or organic planting pots and covered with soil. The compounds of the invention, formulated in the form of wettable powders (WP) or as emulsion concentrates (EC), are then applied onto the surface of the covering soil as aqueous suspension or emulsion with addition of 0.5% additive at a water application rate of […] (converted). After the treatment, the pots are placed in a greenhouse and kept under good growth conditions for the trial plants. After about 3 weeks, the effect of the preparations is scored visually in comparison with untreated controls as percentages. For example, 100% activity=the plants have died, 0% activity=like control plants. […] Here, for example, compound Nos. I-214 and I-196, when applied pre-emergence, have very good activity (80% to 100% herbicidal activity) against harmful plants such as Abutilon theophrasti, Amaranthus retroflexus, Echinochloa crus-galli, Lolium rigidum, Matricaria inodora, Polygonum convolvulus, Setaria viridis, Stellaria media, Veronica persica and Viola tricolor at an application rate of 0.32 kg of active substance or less per hectare. At the same time, some of the compounds according to the invention leave Gramineae crops such as barley, wheat, rye, millet/sorghum, corn, rice or sugar cane virtually undamaged when applied pre-emergence, even at high active compound dosages. In addition, some substances are also harmless to dicotyledonous crops such as soya, cotton, oilseed rape or sugar beet.

Veronica persica = assay: Pre-emergence herbicidal efficacy, VERPE
Source text: as §1, §2, §3

Stellaria media = assay: Pre-emergence herbicidal efficacy, STEME
Outline: as §4

Setaria viridis = assay: Pre-emergence herbicidal efficacy, SETVI
Source text: as §1, §2, §3

Echinochloa crus-galli = assay: Pre-emergence herbicidal efficacy, ECHCG
Source text: as §1, §2, §3

Matricaria inodora = assay: Pre-emergence herbicidal efficacy, MATIN
Outline: as §4

Amaranthus retroflexus = assay: Pre-emergence herbicidal efficacy, AMARE
Source text: as §1, §2, §3

Abutilon theophrasti = assay: Pre-emergence herbicidal efficacy, ABUTH
Source text: as §1, §2, §3

SMILES	Herbicidal efficacy against POLCO (Polygonum convolvulus)	Herbicidal efficacy against VIOTR (Viola tricolor)	Herbicidal efficacy against LOLRI (Lolium rigidum)	Herbicidal efficacy against VERPE (Veronica persica)	Herbicidal efficacy against STEME (Stellaria media)	Herbicidal efficacy against SETVI (Setaria viridis)	Herbicidal efficacy against ECHCG (Echinochloa crus-galli)	Herbicidal efficacy against MATIN (Matricaria inodora)	Herbicidal efficacy against AMARE (Amaranthus retroflexus)	Herbicidal efficacy against ABUTH (Abutilon theophrasti)
Cc1ccc2c(c1)C(Nc1nc3n(n1)CCCC[S+]3[O-])C(C)C2 (stereo not drawn) [Example I-371]	100%	100%	100%	100%	100%	100%	100%	100%	100%	100%
Cc1ccc2c(c1)C(Nc1nc3n(n1)CCCS3(=O)=O)CC2 (stereo not drawn) [Example I-238]	100%	100%	90%	100%	100%	100%	80%	100%	100%	100%
Cc1ccc2c(c1)[C@H](Nc1nc3n(n1)CCCC[S+]3[O-])CC2 (stereo partly drawn) [Example I-370]	100%	100%	100%	100%	100%	100%	100%	100%	100%	100%
Cc1ccc2c(c1)[C@H](Nc1nc3n(n1)CCCS3)[C@@H](C)C2 [Example I-348]	100%	100%	80%	100%	100%	100%	100%	100%	100%	100%
Cc1ccc2c(c1)[C@H](Nc1nc3n(n1)CCN(S(C)(=O)=O)C3)CC2 [Example I-196]	100%	100%	100%	100%	100%	100%	100%	100%	100%	100%
Cc1ccc2c(c1)C(Nc1nc3n(n1)CCN(C(=O)C1CC1)C3)C(C)C2 (stereo not drawn) [Example I-167]	100%	100%	100%	100%	100%	100%	100%	100%	100%	100%
Cc1ccc2c(c1)[C@H](Nc1nc3n(n1)CCN(S(=O)(=O)C(C)C)C3)[C@@H](C)C2 [Example I-191]	100%	100%	100%	100%	100%	100%	100%	100%	100%	100%
Cc1ccc2c(c1)[C@H](Nc1nc3n(n1)CCCCS3(=O)=O)CC2 [Example I-365]	100%	100%	100%	100%	100%	100%	90%	100%	100%	100%
Cc1ccc2c(c1)[C@H](Nc1nc3n(n1)CCCC[S+]3[O-])CCO2 (stereo partly drawn) [Example I-380]	100%	100%	80%	100%	100%	100%	100%	100%	100%	100%
Cc1ccc2c(c1)[C@H](Nc1nc3n(n1)CCN(S(=O)(=O)C(C)C)C3)CC2 [Example I-197]	80%	100%	80%	100%	100%	100%	90%	100%	100%	100%
Cc1ccc2c(c1)C(Nc1nc3n(n1)CCC(=O)N3CC1CC1)CCC2 (stereo not drawn) [Example I-254]	100%	100%	100%	100%	100%	100%	80%	100%	100%	100%
Cc1ccc2c(c1)C(Nc1nc3n(n1)CCN(C(C)C)C3)C(C)C2 (stereo not drawn) [Example I-152]	100%	100%	100%	100%	100%	100%	100%	100%	100%	100%
